Source: publication PMC5823406, “Vehicle development, pharmacokinetics and toxicity of the anti-invasive agent 4-fluoro-3’,4’,5’-trimethoxychalcone in rodents” (PLoS ONE, 2018)
Several values for one entry are separate records, joined by “and”; a condition that tells them apart may be missing. Identical values can stand only once.

Assay: Whole-blood PK study (IV, IP and PO) in male CD-1 mice
Format: in vivo, mouse
Experimental: Nine male CD-1 mice (25–35 g) were obtained from Hilltop Labs. Duration of acclimation was at least two days. Animals were randomly assigned to the three dose groups (IV, PO, intraperitoneal (IP), N = 3 per group), healthy at the start of the trial, housed one per cage (conventional type with wood chip bedding material), identified by a cage label and maintained in a well-controlled temperature (20–24 C) and humidity (30%-70%) environment with 12 h light/dark cycles. Animals intended for IV dosing were fitted with a jugular vein cannula (JVC, procedure see rat plasma PK study above). The study was not blinded. Food was withheld from the animals for a minimum of 12 h prior to test article administration until 4 h post-dose. Water was offered ad libitum.
C16 was dosed in cassette together with two undisclosed compounds of similar chemical structure. The dose of each test article was 1 mg/kg (IV, JVC, 0.5 mg/mL) or 10 mg/kg (IP and PO gavage, 2 mg/mL). Two respective dosing solutions were prepared (protocol see above) containing 0.5 and 2 mg/mL of C16 (and equal concentrations of the other two test articles) in 20% DMSO / 10% (DMSO / Cremophor EL 1:1) / 70% H2O. Formulations were prepared one day prior to dosing and stored at 4 °C.
Blood samples were taken pre-dose and 5 (except for PO administration), 15, 30 min, 1, 2, 4, and 8 h after dosing. The samples were collected via the tail vein or by cardiac puncture (8 h time point). Blood (25 μL) was collected and pipetted into a tube with 25 μL heparinized water (1 μL of sodium heparin (1000 unit/ml) + 24 μL water) within 30 seconds of collection. The sample was pipetted up and down five times, immediately frozen on dry ice and stored at -60°C to -80°C until analyzed. No necropsy was performed.
Pharmacokinetic parameters were estimated by a non-compartmental model using WinNonlin (v5.2.1 or higher) software. The maximum plasma/blood concentrations (c0) after IV dosing were estimated by extrapolation of the first two time points back to t = 0. The maximum blood concentration (cmax) and the time to reach maximum blood drug concentration (tmax) after PO dosing were derived from the data. The area under the time-concentration curve (AUC) was calculated using the linear trapezoidal rule with calculation to the last quantifiable data point, and with extrapolation to infinity if applicable. Plasma/blood half-life (t1/2) was calculated from 0.693/slope of the terminal elimination phase. Mean residence time (MRT) was calculated by dividing the area under the moment curve (AUMC) by the AUC. Clearance (CL) was calculated from dose/AUC. Steady-state volume of distribution (Vss) was calculated from CL*MRT. Bioavailability was determined by dividing the individual dose-normalized PO AUC values by the respective average dose-normalized intravenous (IV) AUC value. Samples that were below the limit of quantification were not used in the calculation of averages, and were treated as zero for pharmacokinetic data analysis. […]
Sprague-Dawley rats at 10 mg/kg (in 100% DMSO). […]
c Bioavailability determined by dividing the individual dose normalized oral AUC last by the average dose normalized intravenous AUC last value. […]
The dosing solution was prepared as a cassette to contain all three test articles in the same solutions using a vehicle
consisting of 20% DMSO/10% (DMSO/Cremophor EL 1:1)/70% Milli-Q water.
Individual blood concentrations and pharmacokinetic parameters are shown in Table H through Table J. All data are
expressed as ng/mL of the free drug. Samples that were below the limit of quantification were not used in the
calculation of averages. Concentration versus time data are plotted in Fig D through Fig F.
Table H. Individual blood concentrations (ng/mL) and PK parameters for C16 after IV administration in male CD-1 mice at 1 mg/kg.
t (h) 0 (pre-dose) BLOQ BLOQ BLOQ
(1 picture or pasted object on this page, not shown here)

[1] = mouse blood, IP 10 mg/kg, individual animals 4-6, 10 mg/kg
[2] = mouse blood, IV 1 mg/kg, individual animals 1-3, 1 mg/kg
[3] = mouse blood, PO 10 mg/kg, individual animals 7-9, 10 mg/kg
[4] = whole blood, male CD-1 mouse, IP 10 mg/kg, average

COc1cc(C(=O)/C=C/c2ccc(F)cc2)cc(OC)c1OC [C16, 4-fluoro-3’,4’,5’-trimethoxychalcone]
Tmax (male, CD-1, whole blood, mouse blood, PO 10 mg/kg, individual animals 7-9): 15 min
AUClast [1]: 127 ng·h/mL and 101 ng·h/mL
AUC∞ [1]: 134 ng·h/mL and 106 ng·h/mL
Bioavailability [1]: 63.7% and 50.6%
Dose-normalized AUClast [1]: 9.92 kg·ng·h/mL/mg and 12.7 kg·ng·h/mL/mg and 10.1 kg·ng·h/mL/mg
Dose-normalized AUC∞ [1]: 10.1 kg·ng·h/mL/mg and 13.4 kg·ng·h/mL/mg and 10.6 kg·ng·h/mL/mg
MRTlast [1]: 57 min and 55 min
cmax [1]: 106 ng/mL and 125 ng/mL
t1/2 [1]: 51.7 min and 54.1 min
AUClast [2]: 22.2 ng·h/mL and 17.5 ng·h/mL
AUC∞ [2]: 24.7 ng·h/mL and 19.6 ng·h/mL
CL [2]: 673 mL/min/kg and 850 mL/min/kg
MRTlast [2]: 23.9 min and 28.6 min
Vss [2]: 27.2 L/kg and 37.7 L/kg
c0 [2]: 75.8 ng/mL and 103 ng/mL and 49.1 ng/mL
t1/2 [2]: 46.8 min and 38.2 min
AUClast [3]: 15.1 ng·h/mL and 24.5 ng·h/mL
Bioavailability [3]: 7.56% and 12.3%
Dose-normalized AUClast [3]: 2.32 kg·ng·h/mL/mg and 1.51 kg·ng·h/mL/mg and 2.45 kg·ng·h/mL/mg
MRTlast [3]: 100 min and 103 min and 46 min
cmax [3]: 8.76 ng/mL and 17.8 ng/mL and 10.9 ng/mL
Adverse reactions (mouse, 1 mg/kg IV, 10 mg/kg IP or PO, cassette): No adverse reactions were observed
Individual blood concentration (mouse, IP 10 mg/kg, 0.083 h, animals 4-6, 10 mg/kg): 28.2 ng/mL and 68.6 ng/mL and 64.5 ng/mL
Individual blood concentration (mouse, IP 10 mg/kg, 0.25 h, animals 4-6, 10 mg/kg): 106 ng/mL and 125 ng/mL
Individual blood concentration (mouse, IP 10 mg/kg, 0.50 h, animals 4-6, 10 mg/kg): 94.4 ng/mL and 56.3 ng/mL
Individual blood concentration (mouse, IP 10 mg/kg, 1.0 h, animals 4-6, 10 mg/kg): 48.0 ng/mL and 32.1 ng/mL
Individual blood concentration (mouse, IP 10 mg/kg, 2.0 h, animals 4-6, 10 mg/kg): 13.3 ng/mL and 12.1 ng/mL
Individual blood concentration (mouse, IP 10 mg/kg, 4.0 h, animals 4-6, 10 mg/kg): 1.79 ng/mL and 5.29 ng/mL and 3.62 ng/mL
Individual blood concentration (mouse, IP 10 mg/kg, 8.0 h, animals 4-6): BLOQ (BLOQ: Below the limit of quantitation (1 ng/mL))
Individual blood concentration (mouse, IV 1 mg/kg, 0.083 h, animals 1-3, 1 mg/kg): 54.4 ng/mL and 33.4 ng/mL
Individual blood concentration (mouse, IV 1 mg/kg, 0.25 h, animals 1-3, 1 mg/kg): 15.2 ng/mL and 15.4 ng/mL
Individual blood concentration (mouse, IV 1 mg/kg, 0.50 h, animals 1-3, 1 mg/kg): 8.57 ng/mL and 10.9 ng/mL
Individual blood concentration (mouse, IV 1 mg/kg, 1.0 h, animals 1-3, 1 mg/kg): 4.93 ng/mL and 3.76 ng/mL
Individual blood concentration (mouse, IV 1 mg/kg, 2.0 h, animals 1-3, 1 mg/kg): 2.21 ng/mL and 2.30 ng/mL
Individual blood concentration (mouse, IV 1 mg/kg, 4.0 h, animals 1-3): BLOQ (BLOQ: Below the limit of quantitation (1 ng/mL))
Individual blood concentration (mouse, IV 1 mg/kg, 8.0 h, animals 1-3): BLOQ (BLOQ: Below the limit of quantitation (1 ng/mL))
Individual blood concentration (mouse, PO 10 mg/kg, 0.25 h, animals 7-9, 10 mg/kg): 8.76 ng/mL and 17.8 ng/mL and 10.9 ng/mL
Individual blood concentration (mouse, PO 10 mg/kg, 0.50 h, animals 7-9, 10 mg/kg): 7.95 ng/mL and 12.4 ng/mL and 5.89 ng/mL
Individual blood concentration (mouse, PO 10 mg/kg, 1.0 h, animals 7-9, 10 mg/kg): 7.01 ng/mL and 5.15 ng/mL and 3.45 ng/mL
Individual blood concentration (mouse, PO 10 mg/kg, 2.0 h, animals 7-9, 10 mg/kg): 6.19 ng/mL and 4.28 ng/mL and 10.5 ng/mL
Individual blood concentration (mouse, PO 10 mg/kg, 4.0 h, animals 7-9, 10 mg/kg): 3.44 ng/mL and BLOQ (BLOQ: Below the limit of quantitation (1 ng/mL)) and 1.26 ng/mL
Individual blood concentration (mouse, PO 10 mg/kg, 8.0 h, animals 7-9): BLOQ (BLOQ: Below the limit of quantitation (1 ng/mL))
Dose-normalized AUClast [4]: 10.9 kg·ng·h/mL/mg
Dose-normalized AUC∞ [4]: 11.4 kg·ng·h/mL/mg
Dose-normalized AUClast (whole blood, male CD-1 mouse, PO 10 mg/kg, average): 2.09 kg·ng·h/mL/mg
